# Test results taken from patent publication US20240150293A1, “SPIROCYCLOHEXANE DERIVATIVES, PHARMACEUTICAL COMPOSITIONS CONTAINING THEM AND THEIR USES AS ANTI-APOPTOTIC INHIBITORS” (LES LABORATOIRES SERVIER, priority 2021, published 2024).
# Where two headings read alike, the source gives them in different places.
# Tests used:
# Mcl-1 protein = Mcl-1 protein (UniProtKB Q07820) (Homo sapiens (Human), UniProt Q07820); test: Inhibition of Mcl-1 by the fluorescence polarisation assay (Example A, Method A); type: binding; settings: fluorescence polarization assay
# Procedure, shortened: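 Protein (5 nM) and fluorescein-tagged peptide tracer (1 nM) incubated with 11-point compound series for 2 h at room temperature in HEPES/NaCl/Tween 20 buffer, pH 7.4, 5% DMSO. Displacement read as decrease in polarisation; IC50 fitted by 4-parameter logistic, converted to Ki (cKi or eKi).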
# [1] = tested on: H929 multiple myeloma tumor line; test: In vitro cytotoxicity, MTT assay (Example B, Method A); type: cell-based; settings: H929 cells, 48 hours exposure, read-out: C50
# Method: The cytotoxicity studies were carried out on the H929 multiple myeloma tumor line.
# The cells are distributed onto microplates and exposed to the test compounds for 48 hours. The cell viability is then quantified by a colorimetric assay, the Microculture Tetrazolium Assay (Carmichael et al, Cancer Res. 1987, 47, 939-942).
# The results are expressed in C50 which means concentration corresponding to […] of effect/inhibition.
# Sequence of Mcl-1 protein (Q07820 whole entry): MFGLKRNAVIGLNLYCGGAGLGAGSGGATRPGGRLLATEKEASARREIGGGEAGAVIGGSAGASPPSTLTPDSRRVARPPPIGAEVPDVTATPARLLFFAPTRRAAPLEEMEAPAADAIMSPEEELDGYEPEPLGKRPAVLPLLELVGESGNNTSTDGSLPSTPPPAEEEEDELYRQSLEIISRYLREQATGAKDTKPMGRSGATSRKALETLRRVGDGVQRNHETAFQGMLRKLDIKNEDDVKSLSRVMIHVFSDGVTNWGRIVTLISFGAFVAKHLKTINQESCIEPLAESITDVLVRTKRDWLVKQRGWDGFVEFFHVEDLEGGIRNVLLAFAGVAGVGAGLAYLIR
structure (smiles),measurement,setting,value
"O=C(O)[C@]1(Nc2cccc(Cl)c2)CC[C@]2(CC1)C(COCCc1ccccc1)=Cc1ccccc12 [Example 409, (1s,4s)-4-(3-chloroanilino)-2′-[(2-phenylethoxy)methyl]spiro[cyclohexane-1,1′-indene]-4-carboxylic acid]",Ki,Mcl-1 protein,0.155 µM
same,IC50,"[1]; Homo sapiens, NCI-H929, 48 h",30 µM
"O=C(O)[C@]1(Nc2cccc(Cl)c2)CC[C@@]2(CC1)c1ccccc1C[C@H]2C[C@H](COc1ccncc1)c1ccccc1 [Example 554, (1r,2′R,4R)-4-(3-chloroanilino)-2′-{(2S)-2-phenyl-3-[(pyridin-4-yl)oxy]propyl}-2′,3′-dihydrospiro[cyclohexane-1,1′-indene]-4-carboxylic acid]",Ki,Mcl-1 protein,0.323 µM
same,IC50,"[1]; Homo sapiens, NCI-H929, 48 h",30 µM
"Cc1cccc(C2Cc3ccccc3[C@]23CC[C@@](Nc2cccc(Cl)c2)(C(=O)O)CC3)c1 (single isomer, unassigned) [Example 345, (1r,4r)-4-(3-chloroanilino)-2′-(3-methylphenyl)-2′,3′-dihydrospiro[cyclohexane-1,1′-indene]-4-carboxylic acid]",Ki,Mcl-1 protein,1.24 µM
same,IC50,"[1]; Homo sapiens, NCI-H929, 48 h",30 µM
"O=C(O)[C@]1(Nc2cccc(Cl)c2)CC[C@]2(CC1)C(CCCCc1ccccc1)=Cc1ccccc12 [Example 393, (1r,4r)-4-(3-chloroanilino)-2′-(4-phenylbutyl)spiro[cyclohexane-1,1′-indene]-4-carboxylic acid]",Ki,Mcl-1 protein,0.15 µM
same,IC50,"[1]; Homo sapiens, NCI-H929, 48 h",12 µM
"CC(C)Oc1ccc2c(c1)[C@]1(CC[C@@](Nc3cccc(Cl)c3)(C(=O)O)CC1)C(c1cccc(Oc3ccccc3)c1)C2 (single isomer, unassigned) [Example 387, (1r,4r)-4-(3-chloroanilino)-2′-(3-phenoxyphenyl)-6′-[(propan-2-yl)oxy]-2′,3′-dihydrospiro[cyclohexane-1,1′-indene]-4-carboxylic acid]",Ki,Mcl-1 protein,0.22 µM
same,IC50,"[1]; Homo sapiens, NCI-H929, 48 h",9.59 µM
"CNc1cccc(OC[C@H](C)C[C@H]2Cc3ccccc3[C@]23CC[C@@](Nc2cccc(Cl)c2)(C(=O)O)CC3)c1 [Example 569, (1r,2′S,4S)-4-(3-chloroanilino)-2′-{(2R)-2-methyl-3-[3-(methylamino)phenoxy]propyl}-2′,3′-dihydrospiro[cyclohexane-1,1′-indene]-4-carboxylic acid]",Ki,Mcl-1 protein,0.0743 µM
same,IC50,"[1]; Homo sapiens, NCI-H929, 48 h",1.72 µM
"O=C(O)[C@]1(Nc2cccc(Cl)c2)CC[C@@]2(CC1)c1ccccc1C[C@H]2C[C@@H](COc1ccncc1)c1ccccc1 [Example 553, (1r,2′R,4R)-4-(3-chloroanilino)-2′-{(2R)-2-phenyl-3-[(pyridin-4-yl)oxy]propyl}-2′,3′-dihydrospiro[cyclohexane-1,1′-indene]-4-carboxylic acid]",Ki,Mcl-1 protein,5.64 µM
same,IC50,"[1]; Homo sapiens, NCI-H929, 48 h",17.5 µM
"Cc1csc2nccc(OC[C@H](C)C[C@H]3Cc4ccccc4[C@]34CC[C@@](Nc3cccc(Cl)c3)(C(=O)O)CC4)c12 [Example 605, (1r,2′S,4S)-4-(3-chloroanilino)-2′-{(2R)-2-methyl-3-[(3-methylthieno[2,3-b]pyridin-4-yl)oxy]propyl}-2′,3′-dihydrospiro[cyclohexane-1,1′-indene]-4-carboxylic acid]",Ki,Mcl-1 protein,0.0242 µM
same,IC50,"[1]; Homo sapiens, NCI-H929, 48 h",0.906 µM
"CC(C)C(COc1ccncc1)CC1Cc2ccccc2[C@]12CC[C@@](Nc1cccc(Cl)c1)(C(=O)O)CC2 (single isomer, unassigned) [Example 535, (1r,4r)-4-(3-chloroanilino)-2′-(3-methyl-2-{[(pyridin-4-yl)oxy]methyl}butyl)-2′,3′-dihydrospiro[cyclohexane-1,1′-indene]-4-carboxylic acid]",Ki,Mcl-1 protein,2.28 µM
same,IC50,[1],30 µM
"CC(C)C(COc1cccnc1)CC1Cc2ccccc2[C@]12CC[C@@](Nc1cccc(Cl)c1)(C(=O)O)CC2 (single isomer, unassigned) [Example 526, (1r,4r)-4-(3-chloroanilino)-2′-(3-methyl-2-{[(pyridin-3-yl)oxy]methyl}butyl)-2′,3′-dihydrospiro[cyclohexane-1,1′-indene]-4-carboxylic acid]",Ki,Mcl-1 protein,1.86 µM
same,IC50,"[1]; Homo sapiens, NCI-H929, 48 h",30 µM
"O=C(O)[C@]1(Nc2cccc(Cl)c2)CC[C@@]2(CC1)c1ccccc1C[C@H]2C[C@H](COc1ccccc1)c1ccccc1 [Example 557, (1r,2′R,4R)-4-(3-chloroanilino)-2′-[(2S)-3-phenoxy-2-phenylpropyl]-2′,3′-dihydrospiro[cyclohexane-1,1′-indene]-4-carboxylic acid]",Ki,Mcl-1 protein,1.27 µM
same,IC50,"[1]; Homo sapiens, NCI-H929, 48 h",20.1 µM
"CC[C@H](COc1ccnc2ccsc12)C[C@H]1Cc2ccccc2[C@]12CC[C@@](Nc1cccc(Cl)c1)(C(=O)O)CC2 [Example 537, (1r,2′S,4S)-4-(3-chloroanilino)-2′-[(2S)-2-{[(thieno[3,2-b]pyridin-7-yl)oxy]methyl}butyl]-2′,3′-dihydrospiro[cyclohexane-1,1′-indene]-4-carboxylic acid]",Ki,Mcl-1 protein,0.575 µM
same,IC50,"[1]; Homo sapiens, NCI-H929, 48 h",16 µM
"C[C@@H](COc1ccncc1C1CC1(C)C)C[C@H]1Cc2ccccc2[C@]12CC[C@@](Nc1cccc(Cl)c1)(C(=O)O)CC2 (stereo partly drawn) [Example 580, (1r,2′S,4S)-4-(3-chloroanilino)-2′-[(2R)-3-{[3-(2,2-dimethylcyclopropyl)pyridin-4-yl]oxy}-2-methylpropyl]-2′,3′-dihydrospiro[cyclohexane-1,1′-indene]-4-carboxylic acid]",Ki,Mcl-1 protein,0.0927 µM
same,IC50,"[1]; Homo sapiens, NCI-H929, 48 h",5.12 µM
"C[C@@H](COc1ccnc2ccsc12)C[C@@H]1Cc2ccccc2[C@]12CC[C@@](Nc1cccc(Cl)c1)(C(=O)O)CC2 [Example 590, (1r,2′R,4R)-4-(3-chloroanilino)-2′-{(2R)-2-methyl-3-[(thieno[3,2-b]pyridin-7-yl)oxy]propyl}-2′,3′-dihydrospiro[cyclohexane-1,1′-indene]-4-carboxylic acid]",Ki,Mcl-1 protein,0.0192 µM
same,IC50,"[1]; Homo sapiens, NCI-H929, 48 h",1.17 µM
"O=C(O)[C@]1(Nc2cccc(Cl)c2)CC[C@]2(CC1)C(C#CCOc1ccccc1)=Cc1ccccc12 [Example 172, (1s,4s)-4-(3-chloroanilino)-2′-(3-phenoxyprop-1-yn-1-yl)spiro[cyclohexane-1,1′-indene]-4-carboxylic acid]",Ki,Mcl-1 protein,0.0558 µM
same,IC50,"[1]; Homo sapiens, NCI-H929, 48 h",18.7 µM
"O=C(O)[C@]1(Nc2cccc(Cl)c2)CC[C@@]2(CC1)c1ccccc1C[C@H]2C[C@H](COc1ccnc2ccsc12)c1ccccc1 [Example 546, (1r,2′R,4R)-4-(3-chloroanilino)-2′-{(2S)-2-phenyl-3-[(thieno[3,2-b]pyridin-7-yl)oxy]propyl}-2′,3′-dihydrospiro[cyclohexane-1,1′-indene]-4-carboxylic acid]",Ki,Mcl-1 protein,1.64 µM
same,IC50,"[1]; Homo sapiens, NCI-H929, 48 h",30 µM
"O=C(O)[C@]1(Nc2cccc(Cl)c2)CC[C@@]2(CC1)c1ccccc1C[C@@H]2C[C@@H](COc1ccnc2ccsc12)c1ccccc1 [Example 545, (1r,2′S,4S)-4-(3-chloroanilino)-2′-{(2R)-2-phenyl-3-[(thieno[3,2-b]pyridin-7-yl)oxy]propyl}-2′,3′-dihydrospiro[cyclohexane-1,1′-indene]-4-carboxylic acid]",Ki,Mcl-1 protein,3.49 µM
same,IC50,"[1]; Homo sapiens, NCI-H929, 48 h",8.92 µM
"COc1ccc2c(c1)[C@]1(CC2)CC[C@](Nc2cccc(Br)c2)(C(=O)O)CC1 [Example 61, (1r,4s)-4-(3-bromoanilino)-6′-methoxy-2′,3′-dihydrospiro[cyclohexane-1,1′-indene]-4-carboxylic acid]",Ki,Mcl-1 protein,0.358 µM
same,IC50,"[1]; Homo sapiens, NCI-H929, 48 h",30 µM
"C[C@@H](COc1ccnc2c1CCCO2)C[C@H]1Cc2ccccc2[C@]12CC[C@@](Nc1cccc(Cl)c1)(C(=O)O)CC2 [Example 635, (1r,2′S,4S)-4-(3-chloroanilino)-2′-{(2R)-3-[(3,4-dihydro-2H-pyrano[2,3-b]pyridin-5-yl)oxy]-2-methylpropyl}-2′,3′-dihydrospiro[cyclohexane-1,1′-indene]-4-carboxylic acid]",Ki,Mcl-1 protein,0.0448 µM
same,IC50,"[1]; Homo sapiens, NCI-H929, 48 h",4.59 µM
"O=C(O)[C@]1(Nc2cccc(Cl)c2)CC[C@@]2(CC1)c1ccccc1C[C@H]2c1ccc(Oc2ccccc2)cc1 [Example 358, (1r,2′S,4S)-4-(3-chloroanilino)-2′-(4-phenoxyphenyl)-2′,3′-dihydrospiro[cyclohexane-1,1′-indene]-4-carboxylic acid]",Ki,Mcl-1 protein,0.0622 µM
same,IC50,"[1]; Homo sapiens, NCI-H929, 48 h",7.43 µM
"CC[C@H](COc1ccnc2ccsc12)C[C@@H]1Cc2ccccc2[C@]12CC[C@@](Nc1cccc(Cl)c1)(C(=O)O)CC2 [Example 536, (1r,2′R,4R)-4-(3-chloroanilino)-2′-[(2S)-2-{[(thieno[3,2-b]pyridin-7-yl)oxy]methyl}butyl]-2′,3′-dihydrospiro[cyclohexane-1,1′-indene]-4-carboxylic acid]",Ki,Mcl-1 protein,2.1 µM
same,IC50,"[1]; Homo sapiens, NCI-H929, 48 h",17.2 µM
"C[C@@H](COc1ccnc2[nH]ccc12)C[C@H]1Cc2ccccc2[C@]12CC[C@@](Nc1cccc(Cl)c1)(C(=O)O)CC2 [Example 626, (1r,2′S,4S)-4-(3-chloroanilino)-2′-{(2R)-2-methyl-3-[(1H-pyrrolo[2,3-b]pyridin-4-yl)oxy]propyl}-2′,3′-dihydrospiro[cyclohexane-1,1′-indene]-4-carboxylic acid]",IC50,"[1]; Homo sapiens, NCI-H929, 48 h",0.54 µM
"CC(C)C(COc1ccnc2ccsc12)CC1Cc2ccccc2[C@]12CC[C@@](Nc1cccc(Cl)c1)(C(=O)O)CC2 (single isomer, unassigned) [Example 523, (1r,4r)-4-(3-chloroanilino)-2′-(3-methyl-2-{[(thieno[3,2-b]pyridin-7-yl)oxy]methyl}butyl)-2′,3′-dihydrospiro[cyclohexane-1,1′-indene]-4-carboxylic acid]",IC50,[1],16.4 µM
